The values that follow come from ChEMBL document CHEMBL1154456, “CoMFA analysis of dual/multiple PPAR activators” (Eur J Med Chem, 2008).

One experiment addresses T1, Peroxisome proliferator-activated receptor gamma (Homo sapiens, UniProt P37231).
T1 sequence (P37231 whole entry): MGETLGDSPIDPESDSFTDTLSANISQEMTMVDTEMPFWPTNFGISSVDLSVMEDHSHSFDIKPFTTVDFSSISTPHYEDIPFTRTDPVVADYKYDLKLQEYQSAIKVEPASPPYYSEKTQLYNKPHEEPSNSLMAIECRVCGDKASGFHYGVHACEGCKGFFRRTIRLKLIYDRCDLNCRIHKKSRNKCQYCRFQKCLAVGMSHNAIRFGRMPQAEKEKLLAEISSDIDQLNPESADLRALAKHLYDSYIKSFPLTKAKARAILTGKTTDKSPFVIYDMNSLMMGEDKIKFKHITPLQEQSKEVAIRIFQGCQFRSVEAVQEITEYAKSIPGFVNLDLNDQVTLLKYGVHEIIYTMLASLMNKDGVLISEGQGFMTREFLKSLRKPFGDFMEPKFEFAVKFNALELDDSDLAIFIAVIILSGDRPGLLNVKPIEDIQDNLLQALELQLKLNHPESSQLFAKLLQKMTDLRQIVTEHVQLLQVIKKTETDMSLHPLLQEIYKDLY
Description: Agonist activity at human PPARgamma expressed in african green monkey CV1 cells co-transfected with Gal4 assessed as reporter activity by transient transactivation assay. In kind it is functional, cell-based, CV-1.
Details: not given
For orientation: EC50 means the concentration needed to bring the measured effect to its halfway point. With `CC(C)OC(Cc1ccc(OCCc2noc(-c3ccccc3C(F)(F)F)n2)cc1)C(=O)O` (stereo unspecified), the EC50 came to 160 nM.

The next experiment has as its target T2, Peroxisome proliferator-activated receptor delta (Homo sapiens) (UniProt Q03181).
T2 sequence (whole entry): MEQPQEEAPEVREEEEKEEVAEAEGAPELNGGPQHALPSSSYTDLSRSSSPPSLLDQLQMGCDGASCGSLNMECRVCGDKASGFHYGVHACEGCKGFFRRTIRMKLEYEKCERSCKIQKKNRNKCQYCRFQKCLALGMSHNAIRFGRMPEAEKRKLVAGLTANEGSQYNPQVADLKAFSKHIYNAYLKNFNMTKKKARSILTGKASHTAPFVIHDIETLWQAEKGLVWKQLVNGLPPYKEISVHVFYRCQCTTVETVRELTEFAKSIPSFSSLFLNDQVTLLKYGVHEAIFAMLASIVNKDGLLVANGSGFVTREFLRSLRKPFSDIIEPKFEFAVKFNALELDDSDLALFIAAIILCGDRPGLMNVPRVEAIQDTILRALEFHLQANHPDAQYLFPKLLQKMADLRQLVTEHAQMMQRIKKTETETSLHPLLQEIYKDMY
As to the kind of experiment: Agonist activity at human PPARdelta expressed in african green monkey CV1 cells co-transfected with Gal4 assessed as reporter activity by transient transactivation assay. Details: concentration or dose not given beside the values. Format: functional, cell-based. The conditions noted are these: CV-1.
As for `CC(C)OC(Cc1ccc(OCCc2noc(-c3ccc(F)cc3)n2)cc1)C(=O)O` (stereo unspecified), the Activity is < 40%. Turning to `CC(C)OC(Cc1ccc(OCCc2noc(-c3ccc(Cl)cc3)n2)cc1)C(=O)O` (stereo unspecified), the Activity came out at 40%.

For the compound `CC(C)OC(Cc1ccc(OCCc2noc(-c3cc(C(F)(F)F)cc(C(F)(F)F)c3)n2)cc1)C(=O)O` (stereo unspecified), the Activity was < 40%. In the case of `CC(C)OC(Cc1ccc(OCc2noc(C3CCCCC3)n2)cc1)C(=O)O` (stereo unspecified), the Activity is < 40%. In the case of `CC(C)OC(Cc1ccc(OCCc2noc(-c3ccccc3)n2)cc1)C(=O)O` (stereo unspecified), the Activity is < 40%.
